Source: ChEMBL document CHEMBL1201862, “PubChem BioAssay data set” (2004)
Activity calls are given as the source filed them.

How the values were obtained:
Large T antigen = Large T antigen (Simian virus 40, UniProt P03070); type: functional, Betapolyomavirus macacae;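 also: Confirmatory-stage PubChem screen for compounds that inhibit SV40 T antigen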
[1] = target: T1, Heat shock factor protein 1 (Mus musculus, UniProt P38532); assay: HSF1 potentiators in luciferase reporter cells, confirmation, cell-based, NIH3T3, luminescence, dose retest (AID 435004); type: functional;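 also: stress induced by proteasome inhibitor MG132 added 30 min after compound; luciferase reporter driven by HSF1 response element in NIH3T3 cells; actives raise luminescence as potentiators of the MG132 stress response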
T1 sequence (P38532 whole entry): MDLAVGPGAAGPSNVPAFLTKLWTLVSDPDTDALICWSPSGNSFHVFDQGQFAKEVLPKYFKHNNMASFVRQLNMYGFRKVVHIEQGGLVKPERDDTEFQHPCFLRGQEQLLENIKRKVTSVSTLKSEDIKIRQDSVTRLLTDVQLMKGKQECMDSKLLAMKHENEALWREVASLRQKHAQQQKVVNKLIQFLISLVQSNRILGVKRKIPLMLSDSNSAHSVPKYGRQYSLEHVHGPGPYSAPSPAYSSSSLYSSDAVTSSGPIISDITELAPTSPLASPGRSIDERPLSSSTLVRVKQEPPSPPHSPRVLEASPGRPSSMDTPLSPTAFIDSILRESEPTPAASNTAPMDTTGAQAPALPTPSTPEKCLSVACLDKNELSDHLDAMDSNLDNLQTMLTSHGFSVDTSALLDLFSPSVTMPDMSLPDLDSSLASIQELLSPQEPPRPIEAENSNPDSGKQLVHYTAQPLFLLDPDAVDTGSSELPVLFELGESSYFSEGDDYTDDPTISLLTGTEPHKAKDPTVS

[2] = target: DNA dC->dU-editing enzyme APOBEC-3G (Homo sapiens, UniProt Q9HC16); assay: Dose Response confirmation of small molecule APOBEC3G DNA Deaminase Inhibitors via a fluorescence-based single-stranded DNA deaminase assay. [Related pubchem assays (depositor defined):AID493012, AID493028]; type: functional
Melanocortin receptor 4 = Melanocortin receptor 4 (Homo sapiens, UniProt P32245); type: functional, cell-based;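 also: Cell-based assay with luminescence read-out, confirmatory dose-response testing for agonist activity of biased ligands at MC4R; human U2OS cells with tagged receptor and beta-arrestin; potency of agonists that increase receptor coupling to beta-arrestin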
[3] = target: Potassium voltage-gated channel subfamily KQT member 2 (Rattus norvegicus, UniProt O88943); assay: KCNQ2 potassium channel inhibitors, dose response, cell-based, automated electrophysiology, set II, rat KCNQ2 (AID 588637); type: functional
[4] = inhibitors of PGC1a acetylation in cells, dose response, cell-based, cherry-picked samples (AID 720514); type: functional;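 also: potency may reflect raised or lowered acetylation signal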
[5] = target: T2, Kappa-type opioid receptor (Homo sapiens, UniProt P41145); type: functional
[6] = target: T2, Kappa-type opioid receptor; type: functional; remark: listed apart in the source
Beta-galactosidase = Beta-galactosidase (Escherichia coli, UniProt Q8VNN2); type: functional
[7] = target: Voltage-dependent T-type calcium channel subunit alpha-1H (Homo sapiens, UniProt O95180); type: functional;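 also: channel activity triggered by adding a high calcium stimulation buffer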
[8] = target: T3, Adenosylmethionine-8-amino-7-oxononanoate aminotransferase (Mycobacterium tuberculosis, UniProt P9WQ81); assay: Mycobacterium tuberculosis BioA enzyme inhibitor Measured in Biochemical System Using Plate Reader - 2163-02_Inhibitor_Dose_CherryPick_Activity.; type: functional, Mycobacterium tuberculosis UT205
T3 sequence (P9WQ81 whole entry): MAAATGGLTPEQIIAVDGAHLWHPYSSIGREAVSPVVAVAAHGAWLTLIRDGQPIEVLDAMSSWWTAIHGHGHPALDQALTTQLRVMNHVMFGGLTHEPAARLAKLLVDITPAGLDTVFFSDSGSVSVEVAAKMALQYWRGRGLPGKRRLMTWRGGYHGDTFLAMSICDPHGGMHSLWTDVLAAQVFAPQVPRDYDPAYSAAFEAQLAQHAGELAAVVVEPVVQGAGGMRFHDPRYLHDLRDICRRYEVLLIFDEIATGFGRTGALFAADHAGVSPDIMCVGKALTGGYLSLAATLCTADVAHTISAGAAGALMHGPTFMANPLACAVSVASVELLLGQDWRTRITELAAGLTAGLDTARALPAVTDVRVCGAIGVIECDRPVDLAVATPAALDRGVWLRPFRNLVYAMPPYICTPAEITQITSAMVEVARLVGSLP

[9] = HepG2 cell cytotoxicity, dose response, cytotoxicity control, plate reader, cherry-pick, antagonist series (AID 743416); type: functional, cell-based
[10] = MC4R antagonists, dose response, counter-screen for LGR2 antagonist project, cell-based, plate reader, cherry pick (AID 743444); type: functional;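 also: transfected HEK 293 cells stimulated with alpha-MSH peptide; potency of inhibitors of the alpha-MSH evoked signal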
[11] = Luminescence Cell-Based Dose Retest to Confirm Inhibitors of Cancer Stem Cells. [Related pubchem assays (depositor defined):AID2717, AID2721]; type: functional; settings: Homo sapiens
[12] = LGR2 antagonists, dose response, cell-based, HEK293, CRE-luciferase reporter, cherry pick, set 2 (AID 743343); type: functional;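 also: transfected cells were stimulated with diluted bursicon conditioned medium after compound addition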
INS1 = assay: beta cell apoptosis inhibitors, cytokine rescue, dose response, luminescence, retest (AID 449756); type: functional, cell-based; settings: Rattus norvegicus;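 also: cell death triggered by IL-1 beta plus TNF-alpha plus IFN-gamma mixture; protective hits raise ATP signal compared with cytokine alone wells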
[13] = HEK293 cell cytotoxicity, dose response, cytotoxicity control, plate reader, cherry-picked samples (AID 743446); type: functional, cell-based
[14] = A549 cell cytotoxicity, dose response, cytotoxicity control, plate reader, cherry-pick, antagonist series (AID 743412); type: functional, cell-based
[15] = target: T4, Low molecular weight phosphotyrosine protein phosphatase (Homo sapiens, UniProt P24666); type: functional; settings: read-out: IC50_Mean;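 also: Dose-response confirmation assay measuring inhibition of LMPTP enzyme activity by fluorescence intensity read-out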
T4 sequence (P24666 whole entry): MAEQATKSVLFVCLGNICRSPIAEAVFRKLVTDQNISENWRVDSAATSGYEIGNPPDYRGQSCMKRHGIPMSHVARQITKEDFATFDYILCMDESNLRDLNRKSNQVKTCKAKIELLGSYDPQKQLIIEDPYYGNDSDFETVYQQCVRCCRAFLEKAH

Vero [16] = assay: cells; type: functional; settings: Chlorocebus sabaeus
Vero [17] = assay: cells; type: functional, cell-based; settings: Chlorocebus sabaeus
[18] = THP-1 cell cytotoxicity, dose response, cytotoxicity control for non-replicating M. tuberculosis project (AID 489025); type: functional
Protein skinhead-1 = target: T5, Protein skinhead-1 (Caenorhabditis elegans, UniProt P34707); type: functional
T5 sequence (P34707 whole entry): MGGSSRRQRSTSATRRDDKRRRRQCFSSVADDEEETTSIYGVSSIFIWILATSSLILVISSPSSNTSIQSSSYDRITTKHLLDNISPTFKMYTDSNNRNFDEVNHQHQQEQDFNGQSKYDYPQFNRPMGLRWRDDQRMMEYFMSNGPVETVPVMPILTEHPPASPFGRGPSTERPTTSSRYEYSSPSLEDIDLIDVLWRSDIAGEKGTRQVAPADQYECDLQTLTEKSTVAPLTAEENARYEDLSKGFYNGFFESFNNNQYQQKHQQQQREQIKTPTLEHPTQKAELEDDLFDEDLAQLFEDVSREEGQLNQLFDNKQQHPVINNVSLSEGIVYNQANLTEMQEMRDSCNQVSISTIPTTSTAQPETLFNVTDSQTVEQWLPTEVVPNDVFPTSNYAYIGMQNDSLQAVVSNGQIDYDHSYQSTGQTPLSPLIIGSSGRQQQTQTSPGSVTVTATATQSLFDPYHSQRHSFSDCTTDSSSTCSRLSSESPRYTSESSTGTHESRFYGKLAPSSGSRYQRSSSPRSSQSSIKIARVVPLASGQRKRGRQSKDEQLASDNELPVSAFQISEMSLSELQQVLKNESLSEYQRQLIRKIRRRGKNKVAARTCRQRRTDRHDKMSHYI

[19] = target: T6, Short transient receptor potential channel 4 (Mus musculus, UniProt Q9QUQ5); assay: mouse TRPC4 channel inhibitors, dose response, cell-based, HEK293 TRPC4/mu-opioid, Fluo-4 calcium (AID 434942); type: functional;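 also: potency of inhibitors blocking the TRPC4 calcium response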
T6 sequence (Q9QUQ5 whole entry): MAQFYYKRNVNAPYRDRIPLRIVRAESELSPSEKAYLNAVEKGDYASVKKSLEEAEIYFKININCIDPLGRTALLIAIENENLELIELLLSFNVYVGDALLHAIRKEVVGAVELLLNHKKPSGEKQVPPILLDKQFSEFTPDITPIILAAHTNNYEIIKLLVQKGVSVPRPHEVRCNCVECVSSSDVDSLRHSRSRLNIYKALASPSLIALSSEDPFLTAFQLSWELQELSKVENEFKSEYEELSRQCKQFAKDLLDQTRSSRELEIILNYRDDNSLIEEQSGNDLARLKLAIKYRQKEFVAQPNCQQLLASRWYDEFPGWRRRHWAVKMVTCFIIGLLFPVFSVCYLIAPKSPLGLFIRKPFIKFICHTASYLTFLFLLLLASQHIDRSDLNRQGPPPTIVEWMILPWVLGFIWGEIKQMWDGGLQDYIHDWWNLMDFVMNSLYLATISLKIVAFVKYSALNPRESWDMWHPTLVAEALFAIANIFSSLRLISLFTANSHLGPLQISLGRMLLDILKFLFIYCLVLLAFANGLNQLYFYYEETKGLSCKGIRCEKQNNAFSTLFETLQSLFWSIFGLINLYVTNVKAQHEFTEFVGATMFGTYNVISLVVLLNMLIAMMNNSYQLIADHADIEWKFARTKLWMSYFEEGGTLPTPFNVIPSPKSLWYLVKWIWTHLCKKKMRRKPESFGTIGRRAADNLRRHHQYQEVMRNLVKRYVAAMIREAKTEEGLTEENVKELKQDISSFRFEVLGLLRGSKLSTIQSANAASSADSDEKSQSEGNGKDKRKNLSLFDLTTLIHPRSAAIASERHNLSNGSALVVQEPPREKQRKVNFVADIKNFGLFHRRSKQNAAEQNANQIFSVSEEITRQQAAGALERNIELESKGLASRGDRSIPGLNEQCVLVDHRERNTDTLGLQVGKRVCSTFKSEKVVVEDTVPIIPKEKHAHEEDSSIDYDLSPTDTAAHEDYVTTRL

[20] = target: T7, DNA repair protein RAD52 homolog (Homo sapiens, UniProt P43351); type: functional, biochemical
T7 sequence (P43351 whole entry): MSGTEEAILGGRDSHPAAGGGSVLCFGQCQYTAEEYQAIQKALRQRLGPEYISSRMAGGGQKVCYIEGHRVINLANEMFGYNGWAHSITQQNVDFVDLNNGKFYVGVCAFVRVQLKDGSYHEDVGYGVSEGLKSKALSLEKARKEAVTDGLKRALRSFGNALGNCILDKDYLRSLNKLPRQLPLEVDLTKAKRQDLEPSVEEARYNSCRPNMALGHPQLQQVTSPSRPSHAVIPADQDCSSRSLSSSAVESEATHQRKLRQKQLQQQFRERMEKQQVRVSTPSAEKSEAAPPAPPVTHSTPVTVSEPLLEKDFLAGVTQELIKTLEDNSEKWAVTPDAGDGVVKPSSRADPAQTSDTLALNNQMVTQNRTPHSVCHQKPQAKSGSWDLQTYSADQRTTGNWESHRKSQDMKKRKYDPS

[21] = target: T8, DNA repair and recombination protein RAD54-like (Homo sapiens, UniProt Q92698); assay: inhibitors of human RAD54 branch migration, confirmation, biochemical, fluorescence, cherry-picked samples, dose series (AID 651657); type: functional
T8 sequence (Q92698 whole entry): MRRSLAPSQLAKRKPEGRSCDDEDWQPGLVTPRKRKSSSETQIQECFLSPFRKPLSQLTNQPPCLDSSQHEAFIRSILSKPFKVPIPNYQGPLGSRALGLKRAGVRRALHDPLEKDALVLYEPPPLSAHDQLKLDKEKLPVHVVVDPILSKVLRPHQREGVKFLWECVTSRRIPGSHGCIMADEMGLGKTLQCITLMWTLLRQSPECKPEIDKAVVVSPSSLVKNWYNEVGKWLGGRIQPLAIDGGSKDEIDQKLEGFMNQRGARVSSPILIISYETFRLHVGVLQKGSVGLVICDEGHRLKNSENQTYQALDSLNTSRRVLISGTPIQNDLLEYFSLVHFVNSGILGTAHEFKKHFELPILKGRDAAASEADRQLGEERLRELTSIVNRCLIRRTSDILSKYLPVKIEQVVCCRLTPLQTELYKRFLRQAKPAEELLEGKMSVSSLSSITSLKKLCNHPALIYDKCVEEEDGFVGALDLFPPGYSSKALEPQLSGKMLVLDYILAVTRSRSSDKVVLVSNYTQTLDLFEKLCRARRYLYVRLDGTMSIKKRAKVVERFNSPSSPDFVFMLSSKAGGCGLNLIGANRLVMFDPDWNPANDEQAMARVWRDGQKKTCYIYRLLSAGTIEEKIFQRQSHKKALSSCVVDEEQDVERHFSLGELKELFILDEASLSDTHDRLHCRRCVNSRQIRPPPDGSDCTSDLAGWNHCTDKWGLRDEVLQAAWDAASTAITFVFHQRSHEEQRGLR

T2 sequence (P41145 whole entry): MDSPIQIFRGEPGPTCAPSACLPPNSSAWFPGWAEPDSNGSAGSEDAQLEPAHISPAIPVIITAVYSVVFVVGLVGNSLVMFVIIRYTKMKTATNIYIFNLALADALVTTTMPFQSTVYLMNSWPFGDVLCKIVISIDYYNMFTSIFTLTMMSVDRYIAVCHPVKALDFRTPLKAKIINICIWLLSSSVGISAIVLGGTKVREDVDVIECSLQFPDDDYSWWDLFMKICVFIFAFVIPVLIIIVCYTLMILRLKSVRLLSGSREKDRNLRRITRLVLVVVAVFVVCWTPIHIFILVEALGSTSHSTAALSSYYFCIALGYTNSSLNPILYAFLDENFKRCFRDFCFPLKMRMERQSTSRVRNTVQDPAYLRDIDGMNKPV
Chain of Melanocortin receptor 4 (P32245 whole entry): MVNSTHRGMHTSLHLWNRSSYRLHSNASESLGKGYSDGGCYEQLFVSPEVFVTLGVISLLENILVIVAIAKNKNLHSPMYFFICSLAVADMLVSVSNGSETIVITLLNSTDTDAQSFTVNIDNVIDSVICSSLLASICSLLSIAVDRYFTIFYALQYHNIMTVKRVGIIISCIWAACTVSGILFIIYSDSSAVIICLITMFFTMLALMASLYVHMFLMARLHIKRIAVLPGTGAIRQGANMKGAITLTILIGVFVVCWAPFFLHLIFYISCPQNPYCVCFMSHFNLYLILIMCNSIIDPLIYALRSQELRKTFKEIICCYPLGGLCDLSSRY
Chain of Beta-galactosidase (Q8VNN2 whole entry): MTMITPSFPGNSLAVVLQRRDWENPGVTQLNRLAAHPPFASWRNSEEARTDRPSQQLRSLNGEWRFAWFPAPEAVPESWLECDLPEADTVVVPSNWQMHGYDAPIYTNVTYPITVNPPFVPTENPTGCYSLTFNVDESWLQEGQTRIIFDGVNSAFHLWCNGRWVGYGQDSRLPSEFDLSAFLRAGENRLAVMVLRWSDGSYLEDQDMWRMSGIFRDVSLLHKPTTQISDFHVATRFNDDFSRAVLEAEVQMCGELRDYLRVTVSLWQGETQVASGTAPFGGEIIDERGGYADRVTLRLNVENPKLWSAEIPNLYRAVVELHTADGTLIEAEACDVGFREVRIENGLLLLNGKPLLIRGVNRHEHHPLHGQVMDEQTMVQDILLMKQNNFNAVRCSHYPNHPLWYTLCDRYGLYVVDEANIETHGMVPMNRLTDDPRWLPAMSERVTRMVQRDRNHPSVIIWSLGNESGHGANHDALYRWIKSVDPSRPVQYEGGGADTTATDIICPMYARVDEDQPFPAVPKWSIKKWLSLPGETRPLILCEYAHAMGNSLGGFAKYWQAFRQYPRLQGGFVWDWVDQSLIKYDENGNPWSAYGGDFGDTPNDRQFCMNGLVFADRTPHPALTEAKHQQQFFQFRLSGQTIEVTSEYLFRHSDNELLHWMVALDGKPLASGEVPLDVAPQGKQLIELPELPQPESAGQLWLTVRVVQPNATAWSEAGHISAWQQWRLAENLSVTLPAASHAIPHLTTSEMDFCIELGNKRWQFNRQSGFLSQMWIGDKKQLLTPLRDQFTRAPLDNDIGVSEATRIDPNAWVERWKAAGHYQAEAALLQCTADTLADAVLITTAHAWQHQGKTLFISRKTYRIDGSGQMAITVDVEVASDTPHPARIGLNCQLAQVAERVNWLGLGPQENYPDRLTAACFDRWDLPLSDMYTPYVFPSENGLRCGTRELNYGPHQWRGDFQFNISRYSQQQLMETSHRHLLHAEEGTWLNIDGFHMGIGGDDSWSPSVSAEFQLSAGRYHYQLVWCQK
Chain of Potassium voltage-gated channel subfamily KQT member 2 (O88943 whole entry): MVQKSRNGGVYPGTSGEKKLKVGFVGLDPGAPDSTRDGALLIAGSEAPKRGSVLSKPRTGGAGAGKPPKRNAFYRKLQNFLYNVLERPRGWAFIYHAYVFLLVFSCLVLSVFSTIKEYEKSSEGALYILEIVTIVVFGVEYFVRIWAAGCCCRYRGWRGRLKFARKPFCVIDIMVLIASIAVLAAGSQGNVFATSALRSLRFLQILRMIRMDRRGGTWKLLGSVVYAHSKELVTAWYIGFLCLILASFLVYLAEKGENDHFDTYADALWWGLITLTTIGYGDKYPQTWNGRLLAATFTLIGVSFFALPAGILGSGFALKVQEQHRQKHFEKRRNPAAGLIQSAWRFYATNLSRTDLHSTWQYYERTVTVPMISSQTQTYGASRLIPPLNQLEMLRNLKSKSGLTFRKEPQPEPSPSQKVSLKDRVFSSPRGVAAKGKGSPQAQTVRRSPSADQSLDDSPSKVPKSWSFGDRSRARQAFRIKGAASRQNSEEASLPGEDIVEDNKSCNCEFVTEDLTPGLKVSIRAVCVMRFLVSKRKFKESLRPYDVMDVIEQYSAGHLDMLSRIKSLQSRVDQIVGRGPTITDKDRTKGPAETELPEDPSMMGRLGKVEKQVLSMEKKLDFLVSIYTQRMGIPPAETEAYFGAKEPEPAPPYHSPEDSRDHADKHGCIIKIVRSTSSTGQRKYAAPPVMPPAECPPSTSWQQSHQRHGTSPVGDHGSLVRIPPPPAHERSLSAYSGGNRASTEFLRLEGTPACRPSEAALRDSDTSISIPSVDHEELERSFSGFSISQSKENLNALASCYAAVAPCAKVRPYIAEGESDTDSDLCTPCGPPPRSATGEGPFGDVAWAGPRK
Chain of Voltage-dependent T-type calcium channel subunit alpha-1H (O95180 whole entry): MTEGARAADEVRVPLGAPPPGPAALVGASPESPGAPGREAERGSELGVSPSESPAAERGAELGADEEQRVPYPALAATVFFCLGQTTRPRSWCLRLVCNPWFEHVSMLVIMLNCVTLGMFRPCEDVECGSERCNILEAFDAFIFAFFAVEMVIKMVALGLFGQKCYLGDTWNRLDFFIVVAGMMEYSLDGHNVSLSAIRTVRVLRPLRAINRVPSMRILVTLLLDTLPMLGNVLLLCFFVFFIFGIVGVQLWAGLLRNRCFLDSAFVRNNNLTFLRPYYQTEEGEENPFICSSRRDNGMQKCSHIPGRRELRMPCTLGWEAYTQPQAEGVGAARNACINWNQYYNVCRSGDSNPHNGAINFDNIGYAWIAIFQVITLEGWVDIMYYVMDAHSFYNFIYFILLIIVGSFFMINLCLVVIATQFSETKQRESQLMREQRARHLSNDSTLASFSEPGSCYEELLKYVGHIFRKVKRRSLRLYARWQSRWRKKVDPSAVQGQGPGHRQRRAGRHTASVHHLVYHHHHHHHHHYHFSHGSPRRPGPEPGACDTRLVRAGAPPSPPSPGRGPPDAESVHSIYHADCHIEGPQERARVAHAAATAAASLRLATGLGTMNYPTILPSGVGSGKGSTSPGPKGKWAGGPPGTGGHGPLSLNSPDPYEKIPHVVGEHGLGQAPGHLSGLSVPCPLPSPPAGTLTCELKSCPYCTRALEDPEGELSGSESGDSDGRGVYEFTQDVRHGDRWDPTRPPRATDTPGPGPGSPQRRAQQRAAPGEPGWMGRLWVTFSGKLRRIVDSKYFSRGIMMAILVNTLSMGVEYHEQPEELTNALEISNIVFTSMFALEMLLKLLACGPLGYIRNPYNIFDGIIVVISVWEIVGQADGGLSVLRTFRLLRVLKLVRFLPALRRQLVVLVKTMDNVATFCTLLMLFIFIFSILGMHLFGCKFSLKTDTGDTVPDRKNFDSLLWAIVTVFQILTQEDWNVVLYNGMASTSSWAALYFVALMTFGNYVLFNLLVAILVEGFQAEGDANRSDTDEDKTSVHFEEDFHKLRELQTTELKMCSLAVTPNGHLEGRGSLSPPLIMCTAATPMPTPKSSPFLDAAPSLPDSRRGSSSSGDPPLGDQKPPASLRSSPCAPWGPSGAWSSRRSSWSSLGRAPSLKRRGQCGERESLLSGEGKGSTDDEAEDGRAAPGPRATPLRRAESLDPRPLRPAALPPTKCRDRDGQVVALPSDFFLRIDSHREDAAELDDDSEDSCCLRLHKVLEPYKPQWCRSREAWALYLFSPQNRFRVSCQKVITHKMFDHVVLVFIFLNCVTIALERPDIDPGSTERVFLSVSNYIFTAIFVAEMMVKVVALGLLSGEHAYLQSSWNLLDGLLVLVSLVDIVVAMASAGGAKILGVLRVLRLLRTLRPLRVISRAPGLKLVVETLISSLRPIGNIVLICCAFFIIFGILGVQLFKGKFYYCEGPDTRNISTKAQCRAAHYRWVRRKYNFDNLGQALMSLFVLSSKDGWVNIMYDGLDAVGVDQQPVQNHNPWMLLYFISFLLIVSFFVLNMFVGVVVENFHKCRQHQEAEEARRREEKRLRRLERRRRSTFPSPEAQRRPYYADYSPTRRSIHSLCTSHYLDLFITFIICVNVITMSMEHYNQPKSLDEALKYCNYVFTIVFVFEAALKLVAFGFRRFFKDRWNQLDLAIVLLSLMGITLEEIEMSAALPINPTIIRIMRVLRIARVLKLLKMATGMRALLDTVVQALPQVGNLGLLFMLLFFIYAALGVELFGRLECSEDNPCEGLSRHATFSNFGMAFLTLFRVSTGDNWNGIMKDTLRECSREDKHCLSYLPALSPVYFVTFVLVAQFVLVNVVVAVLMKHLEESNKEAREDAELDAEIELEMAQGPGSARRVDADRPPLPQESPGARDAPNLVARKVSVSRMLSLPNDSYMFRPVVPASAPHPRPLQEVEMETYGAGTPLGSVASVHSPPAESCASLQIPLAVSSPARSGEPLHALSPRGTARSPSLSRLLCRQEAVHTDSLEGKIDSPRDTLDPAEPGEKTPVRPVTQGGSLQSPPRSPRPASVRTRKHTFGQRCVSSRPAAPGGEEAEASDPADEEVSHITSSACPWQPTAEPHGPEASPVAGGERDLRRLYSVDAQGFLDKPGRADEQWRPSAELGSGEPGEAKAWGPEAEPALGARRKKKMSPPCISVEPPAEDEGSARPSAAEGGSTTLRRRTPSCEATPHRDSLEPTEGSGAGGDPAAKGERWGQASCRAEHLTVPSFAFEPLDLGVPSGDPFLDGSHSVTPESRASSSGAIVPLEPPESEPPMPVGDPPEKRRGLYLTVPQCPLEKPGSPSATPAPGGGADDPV

CSS(=O)(=O)c1cccc2cccnc12
IC50 (Large T antigen): 65.2 µM (active)
EC50 [1]: 19.1 µM (active)
IC50 [2]: 9.66 µM (active)

N#C/C(=C\c1cn(CCOc2ccccc2)c2ccccc12)C(=O)NCc1ccco1
EC50 (Melanocortin receptor 4): > 89.2 µM (inactive)

Cn1c(C(=O)N2CCc3ccccc3C2)cc2oc3ccccc3c21
IC50 [3]: 6.99 µM (active)

CCSc1nnc(NC(=O)c2csc3c2CCCC3)s1
EC50 (Melanocortin receptor 4): > 89.2 µM (inactive)

COc1ccc(-n2nc(C#N)c(Cl)cc2=O)cc1
AC50 [4]: 3.52 µM (active)
IC50 [5]: 7.21 µM (active)
IC50 [6]: 14 µM
EC50 (Beta-galactosidase): > 31.5 µM (inactive)

Cc1cccc(-c2nc(CN3CCCC(C(=O)NC4CCCCCC4)C3)c(C)o2)c1 (stereo not given)
EC50 [7]: 5.56 µM (active)
IC50 [3]: 7.19 µM (active)

CC(=O)c1ccc(C(=O)N2CCCC(Nc3ccccc3)C2)s1 (stereo not given)
AC50 [8]: 5.18 µM (active)

O=C(Nc1ccc(Cl)cc1)Nc1nnc(-c2ccncc2)s1
AC50 [9]: 5.88 µM (active)
AC50 [10]: 1.74 µM (active)
AC50 [11]: 1.17 µM (active)
AC50 [12]: 3.51 µM (active)
AC50 (INS1): 3.54 µM (active)
AC50 [13]: 2.98 µM (active)
AC50 [14]: 15.5 µM (active)
IC50 [15]: 30.6 µM (inactive)

Cc1ccc(-n2ncc3c(SCc4ccccn4)ncnc32)c(C)c1
CC50 (Vero [16]): > 25 µM (active)
IC50 (Vero [17]): 1.6 µM (active)

COc1cc(CNC2CCCC2)cc(Cl)c1OCc1ccc(F)cc1
CC50 [18]: 19.8 µM (active)
IC50 (Protein skinhead-1): 3.33 µM (active)
EC50 [19]: 6.68 µM (active)

CC(=O)Nc1cc(-c2cccc(NS(C)(=O)=O)c2)cn2c(-c3ccccc3)cnc12
EC50 (Melanocortin receptor 4): > 89.2 µM (inactive)

O=C(NCc1ccco1)c1ccc(-c2ccc3nccn3c2)cc1
AC50 [8]: 1.64 µM (active)

COc1ccc(Cc2c(-c3ccc(OC)c(OC)c3)nc3c(C)cc(Br)cn23)c(C)c1
AC50 [20]: 15.5 µM (active)
AC50 [8]: 6.62 µM (active)
AC50 [21]: 14.8 µM (active)

Cc1nn(-c2ccccc2)c(O)c1/C=N/N1C(=O)c2cccc3cccc(c23)C1=O
IC50 [5]: 10.3 µM (active)
CC50 (Vero [16]): > 25 µM (active)
IC50 [6]: > 32 µM
EC50 (Beta-galactosidase): > 31.5 µM (inactive)
